Target: T1, Full-length glucokinase (beta cell isoform) (Homo sapiens, UniProt P35557)
T1 construct: Full-length glucokinase (beta cell isoform) was His-tagged at N-terminus; His tag (N); made in house; host or cells: E. coli BL21(DE3) carrying the pBCGK vector
T1 sequence (P35557 1-465): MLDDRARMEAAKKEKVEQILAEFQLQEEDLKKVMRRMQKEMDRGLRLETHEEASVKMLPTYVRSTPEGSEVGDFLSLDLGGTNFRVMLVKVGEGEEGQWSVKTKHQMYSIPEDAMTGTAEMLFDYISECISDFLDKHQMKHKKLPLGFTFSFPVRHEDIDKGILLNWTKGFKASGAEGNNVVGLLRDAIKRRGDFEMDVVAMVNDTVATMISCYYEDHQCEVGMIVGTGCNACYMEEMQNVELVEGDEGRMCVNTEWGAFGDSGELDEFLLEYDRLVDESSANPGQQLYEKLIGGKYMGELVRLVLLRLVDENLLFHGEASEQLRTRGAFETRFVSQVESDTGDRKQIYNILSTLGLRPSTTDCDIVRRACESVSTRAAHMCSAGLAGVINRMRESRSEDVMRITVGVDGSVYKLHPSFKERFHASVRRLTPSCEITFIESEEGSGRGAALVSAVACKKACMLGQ
Test: In vitro glucokinase activation assay (PK/LDH coupled, NADH depletion at 340 nm)
Type: biochemical
Details: 5 mM glucose, 2.5 mM ATP; for EC50: pH 7.1, room temperature; for Emax: pH 7.1, (Va/Vo−1)×100 fitted, read-out: Maximum Activation (%)
Experimental: Full-length glucokinase (beta cell isoform) was His-tagged at N-terminus and purified by a Ni column followed by size exclusion chromatography. A 320 mL column was packed in house using Superdex75 (Amersham Pharmacia, Carlsbad, Calif.) preparation grade resin. Glucose was obtained from Calbiochem (San Diego, Calif.) and other reagents were purchased from Sigma-Aldrich (St. Louis, Mo.).
All assays were performed in a Corning 384-well plate using Spectramax PLUS spectrophotometer (Molecular Devices, Sunnyvale, Calif.) at room temperature. The final assay volume was 40 μL. The buffer conditions used in this assay were as follows: 50 mM HEPES, 5 mM glucose, 2.5 mM ATP, 3.5 mM MgCl2, 0.7 mM NADH, 2 mM dithiothreitol, 1 unit/mL pyruvate kinase/lactate dehydrogenase (PK/LDH), 0.2 mM phosphoenolpyruvate, and 25 mM KCl. The buffer pH was 7.1. The test compound in dimethylsulfoxide solution was added to the buffer and mixed by a plate shaker for 7.5 minutes.
Glucokinase was added to the buffer mixture to initiate the reaction in the presence and absence of compound. The reaction was monitored by absorbance at 340 nm due to the depletion of NADH. The initial reaction velocity was measured by the slope of a linear time course of 0-300 seconds. The percentage of maximum activation was calculated by the following equation: % Maximum Activation=(Va/Vo−1)×100; wherein each of Va and Vo is defined as the initial reaction velocity in the presence and absence of the tested compound, respectively.
The glucokinase activities were measured as a function of compound concentrations.

| Compound | EC50 [nM] | Emax [%] |
| --- | --- | --- |
| CCN(C)C(=O)c1cnc(Oc2cc(C(=O)Nc3cnc(C)cn3)cc3oc(C)cc23)cn1 [Example 7, N-ethyl-N-methyl-5-(2-methyl-6-((5-methylpyrazin-2-yl)carbamoyl)-benzofuran-4-yloxy)pyrazine-2-carboxamide] | 474 | 63.4 |
| COc1cnc(NC(=O)c2cc(Oc3cnc(C(=O)N(C)C)nc3)c3cc(C)oc3c2)cn1 [Example 3, 5-(6-((5-methoxypyrazin-2-yl)carbamoyl)-2-methylbenzofuran-4-yloxy)-N,N-dimethylpyrimidine-2-carboxamide] | 462 | 69.5 |
| CCN(C)C(=O)c1ncc(Oc2cc(C(=O)Nc3cnc(C)cn3)cc3oc(C)cc23)cn1 [Example 5, N-ethyl-N-methyl-5-(2-methyl-6-((5-methylpyrazin-2-yl)carbamoyl)benzofuran-4-yloxy)pyrimidine-2-carboxamide] | 546 | 57.6 |

Now from value to compound:

| EC50 [nM] | Emax [%] | Compound |
| --- | --- | --- |
| 629 | 63.9 | Cc1cc2c(Oc3cnc(C(=O)N(C)C)nc3)cc(C(=O)Nc3ccn(C)n3)cc2o1 [Example 4, N,N-dimethyl-5-(2-methyl-6-((1-methyl-1H-pyrazol-3-yl)-carbamoyl)benzofuran-4-yloxy)pyrimidine-2-carboxamide] |
| 382 | 54.1 | CCN(C)C(=O)c1ncc(Oc2cc(C(=O)Nc3ccn(C)n3)cc3oc(C)cc23)cn1 [Example 6, N-ethyl-N-methyl-5-(2-methyl-6-((1-methyl-1H-pyrazol-3-yl)carbamoyl)benzofuran-4-yloxy)pyrimidine-2-carboxamide] |

Source: US8735396B2, “Benzofuranyl derivatives” (Pfizer Inc., priority 2009, dated 2014)
